Values quoted from earlier work in patent US20040037773A1, “Method for detecting abnormal tissue using enhanced radiopharmaceutical uptake” (Block Medical Center, priority 2002, published 2004).

System: mitochondria
Settings: energy dependent manner

Share of sestamibi taken up by mitochondria: over 90%
Compound: [99Tc+].[C-]#[N+]CC(C)(C)OC.[C-]#[N+]CC(C)(C)OC.[C-]#[N+]CC(C)(C)OC.[C-]#[N+]CC(C)(C)OC.[C-]#[N+]CC(C)(C)OC.[C-]#[N+]CC(C)(C)OC [sestamibi, Technetium-99m hexakis 2-methoxyisobutylisonitrile]
